Test results from paper PMC11408460 (Cellular and Molecular Life Sciences: CMLS, 2024).
Residues, ends and D or L forms follow the SMILES beside them.

What was measured:
[1] = 1 mg/ml peptide in 1 × PBS, 22 °C, absorbance 330 nm, triplicates, corrected against PBS
Procedure: 100 µl peptide solution was transferred to transparent 96-well F-bottom microplates (Greiner) and immediately processed. Before the measurement, solutions were briefly mixed by double-orbital shaking for 60 s at 240 rpm. Measurements were done at 22 °C in triplicates using a TECAN Spark plate reader at a wavelength of 330 nm and a bandwidth of 3.5 nm. Values were corrected against 1 × PBS and averaged.

HeLa GL cells [2] = experiment: Autophagy quantification via flow cytometry (membrane-bound eGFP-LC3B), HeLa GL; format: cell-based; settings: 4 h; for autophagosome levels, versions of HBA1(120–132): 1 mg/ml, co-treatment with 20 µM Chloroquine, n = 10–24
Procedure: A detailed protocol for quantification of the number of autophagosomes has previously been published. In brief, HEK293T, HeLa, and THP-1 cell lines stably expressing eGFP-LC3B (labelled as -GL respectively) were used. After cells were treated for 4 h with respective substance/fraction, cells were harvested by removing the medium and adding 0.05% trypsin (PAN Biotech). Afterwards cells were washed once with PBS and permeabilized with 0.05% (w/v) Saponin (Sigma-Aldrich) in PBS. Non-membrane bound eGFP-LC3B was washed out using PBS. Cells were fixed in 4% (w/v) paraformaldehyde in PBS. Quantification of the membrane associated eGFP-LC3B was performed using flow cytometry FACS Canto II, BD Biosciences. The mean eGFP-LC3B fluorescence intensity of the water control was then subtracted from each sample.
To discover endogenous regulators of autophagy, we analyzed a human peptide library derived from bone marrow (BM). In brief, marrow was removed from 1.5 kg human femur bones and homogenized in acetic acid. The homogenate was filtered to contain only peptides with a molecular mass below 30 kDa. The BM library was initially separated on a reversed-phase column. To analyze the autophagy-modulating properties of individual peptide fractions, we used a high-throughput flow cytometry-based autophagosome quantification system. A hallmark of autophagy is the transition from soluble LC3B-I to autophagosome-associated LC3B-II. In GFP-LC3B expressing HeLa cells (HeLa GL), soluble GFP-LC3B is washed out by mild permeabilization and the remaining membrane-bound GFP-LC3B is quantified by FACS as a proxy for autophagosome numbers. Changes in autophagosome content are visualized as deviations from the background (i.e. carrier) control. […] Further purification identified subfraction BM.25.40.28 as bioactive (Fig. 1c). To identify the active peptide(s) we subjected fractions BM.25.40.26 to BM.25.40.30 to analysis by mass spectrometry (Supplementary data 1). Peptides with a molecular mass from ~ 750 Da to 5360 Da and a length from 7 to 57 amino acids were found in the fractions (Supplementary Fig. 1a). […]

HeLa GL cells [3] = experiment: Autophagy quantification by immunofluorescence (GFP-LC3B puncta area); format: cell-based; settings: 4 h, peptides 1 mg/ml, Chloroquine 10 µM, Torin-1 1 µM, confocal microscopy, n = 32–110 cells
Procedure: HeLa GL cells were grown on coverslips (VWR) and treated for 4 h with respective substance. Afterwards, cells were fixed with 4% (w/v) PFA (Santa Cruz) for 20 min and permeabilized as well as blocked with 0.5% (v/v) Triton-X-100 (Sigma-Aldrich) and 5% (v/v) fetal bovine serum (Gibco) PBS for 1 h, both at RT. Cells were then mounted on microscope slides (VWR) in 4′,6-diamidino-2-phenylindole (DAPI, VWR)-containing Mowiol mounting medium (Mowiol 4–88 10% (w/v, Carl Roth), glycerol 25% (w/v, Sigma-Aldrich), H2O 25% (v/v), 0.2 M Tris HCl pH 8.5 50% (v/v, AppliChem GmbH, VWR), DABCO 2.5% (w/v, Carl Roth)) to co-stain nuclei. After acquiring ≥ 30 randomly selected cells using a Zeiss LSM 710 confocal microscope, a custom ImageJ (Version 1.54j) macro was used to analysis the total area of the cytoplasmic eGFP-LC3B puncta as previously described.
Scale bar, 10 µm. DAPI (blue), nuclei. e Quantitative analysis of the LC3B-GFP area per cell of the data in (d). Lines represent geometric mean with 95% confidence interval, n = 32–110. […] Student’s t-test with Welch correction. *p < 0.05; **p < 0.01; ***p < 0.001

in vitro = settings: human, plasma
Procedure: (§1) The mixture was centrifuged at 13,000 rpm for 30 s, and 150 µl of the supernatant was mixed with 750 µl 10% acetic acid in ice. The samples were analyzed by an Axima Confidence MALDI-TOF MS (Shimadzu) in linear mode using exactly the same measurement conditions for all samples spotted on a 384-well plate. Wells were coated with 1 µl of 5 mg/ml CHCA previously dissolved in matrix diluent (Shimadzu), and the solvent was allowed to evaporate. Then, each sample (0.5 µl), previously mixed with matrix (0.5 µl), was applied onto the dry pre-coated well, and the solvent was allowed to evaporate. Laser shots were automatically done following a regular circular raster of a diameter of 2000 µm and spacing of 200 µm on each well; 100 profiles were acquired per sample, and 20 shots were accumulated per profile. An accelerating voltage of 20 kV was applied to the ion source. Three experiments were performed, and the measurements of each sample were done in triplicate (81 measurements in total). The measurement and MS data processing (peak area calculation) were controlled by MALDI-MS Application Shimadzu Biotech Launchpad 2.9.8.1 (Shimadzu). Half-lives were calculated by GraphPad Prism 9.3.1 (GraphPad Software, LLC).

[4] = human; cited from earlier work
[5] = HBA1(111–132) incubated in human plasma, 37 °C, mass spectrometry
Procedure: as §1

Circular dichroism = format: physicochemical; settings: 10 mM phosphate buffer pH 7.4, 25 °C; 130 µM HBA1(120–132), 54 µM HBA1(111–132), 2.1 µM full-length human HB
Procedure: Circular dichroism spectroscopy was recorded on a JASCO J-1500 spectrophotometer at 25 °C using a 0.1 cm path length quartz cuvette from Hellma Analytical. Data points were collected at a resolution of 0.2 nm, an integration time of 2 s and a scanning speed of 5 nm min-1. Each spectrum was the result of three accumulated independent scans. Phosphate buffer solution (10 mM, pH = 7.4) was employed to solubilize the samples. […] Background subtraction was performed using the solvent. Secondary structure estimation (SSE) for the samples was conducted using the CD Multivariate SSE program included in the JASCO spectrometer.

D128A: HBA1(120–132) with aspartic acid exchanged for alanine (PAVHASLAKFLAS; UniProt P69905 120-132, looked up, fragment D127A)
solubility (precipitation turbidity, optical density) [1]: does not alter the function nor the solubility | autophagosome levels, versions of HBA1(120–132) (HeLa GL cells [2]): does not alter the function

CCC(=O)N1CCN(c2ccc(-n3c(=O)ccc4cnc5ccc(-c6cnc7ccccc7c6)cc5c43)cc2C(F)(F)F)CC1 [Torin-1]
GFP-LC3B area per cell (puncta = autophagosomes) (HeLa GL cells [3]): expected increase of autophagosomes

CC(C)C[C@H](NC(=O)[C@H](Cc1ccccc1)NC(=O)[C@H](CCCCN)NC(=O)[C@H](CC(=O)O)NC(=O)[C@H](CC(C)C)NC(=O)[C@H](CO)NC(=O)[C@H](C)NC(=O)[C@H](Cc1c[nH]cn1)NC(=O)[C@@H](NC(=O)[C@H](C)NC(=O)[C@@H]1CCCN1C(=O)[C@@H](NC(=O)[C@H](Cc1ccccc1)NC(=O)[C@H](CCC(=O)O)NC(=O)[C@H](C)NC(=O)[C@@H]1CCCN1C(=O)[C@H](CC(C)C)NC(=O)[C@H](Cc1c[nH]cn1)NC(=O)[C@H](C)NC(=O)[C@H](C)N)[C@@H](C)O)C(C)C)C(=O)N[C@@H](C)C(=O)N[C@@H](CO)C(=O)O [HBA1(111–132)] (H-AAHLPAEFTPAVHASLDKFLAS-OH)
half-life at 8.7 µM (in vitro): 52 min

CCN(CC)CCCC(C)Nc1ccnc2cc(Cl)ccc12 (stereo not drawn) [Chloroquine]
GFP-LC3B area per cell (puncta = autophagosomes) (HeLa GL cells [3]): expected increase of autophagosomes

TNF-α
half-life [4]: around 18 min

CC(C)C[C@H](NC(=O)[C@H](Cc1ccccc1)NC(=O)[C@H](CCCCN)NC(=O)[C@H](CC(=O)O)NC(=O)[C@H](CC(C)C)NC(=O)[C@H](CO)NC(=O)[C@H](C)NC(=O)[C@H](Cc1c[nH]cn1)NC(=O)[C@@H](NC(=O)[C@H](C)NC(=O)[C@@H]1CCCN1C(=O)[C@@H](NC(=O)[C@H](Cc1ccccc1)NC(=O)[C@H](CCC(=O)O)NC(=O)[C@H](C)NC(=O)[C@@H]1CCCN1C(=O)[C@H](CC(C)C)NC(=O)[C@@H](N)Cc1c[nH]cn1)[C@@H](C)O)C(C)C)C(=O)N[C@@H](C)C(=O)N[C@@H](CO)C(=O)O [HBA1(113–132)] (H-HLPAEFTPAVHASLDKFLAS-OH)
time of appearance of degradation fragment above 5% of total HBA1 content [5]: ≤ 15 min | time of peak abundance of degradation fragment post plasma treatment [5]: > 140 min

K127A: HBA1(120–132) with lysine exchanged for alanine (PAVHASLDAFLAS; UniProt P69905 120-132, looked up, fragment K128A)
solubility (precipitation turbidity, optical density) [1]: precipitates were detected | autophagosome levels, versions of HBA1(120–132) (HeLa GL cells [2]): the function to inhibit autophagy was reduced

full-length HBA1: full-length hemoglobin A (HB subunit alpha-1)
effect on autophagosome levels (HeLa GL cells [2]; concentration range 1 mg/ml–7.8 µg/ml, n = 3): did not impact autophagosome levels

full-length HB: recombinant full-length hemoglobin
secondary structure in solution (circular dichroism) (Circular dichroism): mainly composed of alpha-helical structures

CC(C)C[C@H](NC(=O)[C@H](Cc1ccccc1)NC(=O)[C@H](CCCCN)NC(=O)[C@H](CC(=O)O)NC(=O)[C@H](CC(C)C)NC(=O)[C@H](CO)NC(=O)[C@H](C)NC(=O)[C@H](Cc1c[nH]cn1)NC(=O)[C@@H](NC(=O)[C@H](C)NC(=O)[C@@H]1CCCN1C(=O)[C@@H](NC(=O)[C@H](Cc1ccccc1)NC(=O)[C@H](CCC(=O)O)NC(=O)[C@H](C)NC(=O)[C@@H]1CCCN1)[C@@H](C)O)C(C)C)C(=O)N[C@@H](C)C(=O)N[C@@H](CO)C(=O)O [HBA1(115–132)] (H-PAEFTPAVHASLDKFLAS-OH)
time of appearance of degradation fragment above 5% of total HBA1 content [5]: 180 min

CC(C)C[C@H](NC(=O)[C@H](C)NC(=O)[C@H](C)NC(=O)[C@H](Cc1c[nH]cn1)NC(=O)[C@@H](NC(=O)[C@H](C)NC(=O)[C@@H]1CCCN1)C(C)C)C(=O)N[C@@H](CC(=O)O)C(=O)N[C@@H](CCCCN)C(=O)N[C@@H](Cc1ccccc1)C(=O)N[C@@H](CC(C)C)C(=O)N[C@@H](C)C(=O)N[C@@H](C)C(=O)O [HBA1(120–132)S125A + S132A] (H-PAVHAALDKFLAA-OH)
solubility (precipitation turbidity, optical density) [1]: remained similar to HBA1(120–132)

CC(C)C[C@H](NC(=O)[C@H](CO)NC(=O)[C@H](C)NC(=O)[C@H](Cc1c[nH]cn1)NC(=O)[C@@H](NC(=O)[C@H](C)NC(=O)[C@@H]1CCCN1)C(C)C)C(=O)N[C@@H](C)C(=O)N[C@@H](C)C(=O)N[C@@H](Cc1ccccc1)C(=O)N[C@@H](CC(C)C)C(=O)N[C@@H](C)C(=O)N[C@@H](CO)C(=O)O [HBA1(120–132)D127A + K128A] (H-PAVHASLAAFLAS-OH)
solubility (precipitation turbidity, optical density) [1]: almost insoluble in water
